Patent publication US9949473B2, “Coagulation controlling agents and devices comprising the same” (Becton, Dickinson and Company, priority 2011, dated 2018)
Ends that are not written are not given here.

Tests used:
thrombin [1] = biological target: T1, thrombin (Homo sapiens, UniProt P00734); test: Accelerated stability of sprayed thrombin with para-aminobenzamidine (thrombin activity on Stago Compact); format: biochemical; settings: para-aminobenzamidine about 3 mM in about 5 mM citrate or isocitrate pH about 6.1; sealed tubes at about 43° C., about 75% relative humidity; compared to citrates alone; FIG. 6, FIG. 7
T1 construct: In preferred embodiments, thrombin is alpha-thrombin
Description: The coagulation controlling agent para-aminobenzamidine was evaluated to determine if it improved the stability of sprayed thrombin under accelerated stability conditions. Without wishing to be bound by any particular theory, it is believed that para-aminobenzamidine stabilizes the spray-dried thrombin under conditions of extremely high humidity, where thrombin autolytic degradation can be rapid, even at room temperature.
Thrombin was prepared in about 5 mM citrate or isocitrate at a pH of about 6.1. Para-aminobenzamidine was added at a concentration of about 3 mM. About 16 μL of this solution was sprayed into 13×100 mm PET tubes. The tubes were dried by forced hot air, and evacuated. Sealed tubes were then placed in a controlled environmental chamber previously equilibrated to about 43° C. and about 75% relative humidity. At various time intervals, the tubes were removed and evaluated for thrombin activity on the Stago Compact coagulation analyzer. The error bars indicate the 95% confidence interval for the thrombin activity with 5 replicates.

[2] = test system: reconstituted commercial lyophilized human plasma; test: Clotting time of plasma with thrombin/protamine solutions on Stago Compact coagulation analyzer; format: biochemical; settings: thrombin and protamine in about 20 mM citrate pH about 6, mixed about 1:1 with plasma; FIG. 3
Description: Solutions of thrombin and protamine in about 20 mM of citrate at a pH of about 6 were mixed in a ratio of about 1:1 with reconstituted commercial lyophilized human plasma and tested on a Stago Compact coagulation analyzer. The resulting clotting times were measured as a function of thrombin and protamine concentration for a given thrombin concentration. The concentrations listed on the graph of FIG. 3 represent the thrombin/protamine solutions before being mixed with the plasma.

thrombin [3] = biological target: T1, thrombin; test: Accelerated stability of sprayed thrombin with protamine (thrombin activity on Stago Compact); format: biochemical; settings: about 45% relative humidity
Description: A mixture of thrombin (about 1250 U/mL), protamine (about 125 mg/mL or about 62.5 mg/mL), and a siloxane alkoxylate surfactant was prepared in about 20 mM citrate at a pH of about 6.0. About 20 μL of this mixture was sprayed into 13×100 mm PET tubes. The tubes were dried by forced hot air, evacuated, and stored in the refrigerator. At the initiation of the study, the tubes were uncapped and placed in a controlled environmental chamber previously equilibrated to about 50° C. and about 45% relative humidity. At various time intervals, tubes were removed and evaluated for thrombin activity on the Stago Compact coagulation analyzer. The error bars indicate the 95% confidence interval for the thrombin activity with 5 replicates.
When the thrombin activity of subsequent time points were normalized on the initial value, the resulting curves could be used to compare the relative stability of each formulation (see FIG. 5).

[4] = test system: freshly drawn human blood; test: Visual scoring of fibrin mass in serum from blood clotted in thrombin/protamine tubes; settings: protamine about 0.5 mg/mL; FIG. 2
Description: Protamine sulfate was first resuspended in about 0.5 M hydrochloric acid at a concentration of about 250 mg/mL. This solution was then titrated to a pH of about 6 with 5 N sodium hydroxide. This titration to about pH 6 was performed immediately since prolonged exposure of protamine to low pH, it was believed, would result in hydrolysis and loss of activity. It is also believed that more dilute solutions of hydrochloric acid could be used for preparing the protamine solution.
The protamine solution was then mixed in a ratio of about 1:1 with a solution of about 1250 U/mL of thrombin in about 40 mM sodium citrate at about pH 6.0, containing about 20 mg/mL of a siloxane alkoxylate surfactant, and 2 mg/mL polyvinylpyrrolidone (PVP).
The resulting reagent was filtered and sprayed in 20 μL shots into 13×100 mm polyethyleneterephthalate (PET) tubes. The tubes were then dried by forced hot air, and evacuated and stoppered.
Tubes were filled with freshly drawn human blood and allowed to clot for between about 1 to about 3.5 minutes (randomized) and then centrifuged. The resulting serum was scored by visual assessment for the presence of a “fibrin mass” in the serum compartment on a scale of 0 to 3, with 3 being the most severe.

Compound | thrombin stability over time (thrombin [1]) | clotting time as a function of protamine concentration [2] | relative stability (thrombin activity normalized on the initial value) (thrombin [3]; about 50° C., compared with thrombin formulations without protamine, FIG. 5) | thrombin activity over time (thrombin [3]; thrombin about 1250 U/mL, protamine about 125 or about 62.5 mg/mL, sprayed and dried in PET tubes, uncapped at about 50° C., FIG. 4) | performance of the tube (fibrin mass formation) [4]
N=C(N)c1ccc(N)cc1 [para-aminobenzamidine] | preserves thrombin stability over time | – | – | – | –
Protamine sulfate (PRRRRSSSRPVRRRRRPRVSRRRRRRGGRRRR; also: sulfate salt) [coagulation controlling agent; ID; NO; 1 in some embodiments] | – | decreasing clotting time with increasing protamine concentration | more stable | better with the protamine than without it | improved the performance of the tube dramatically
